Each structure is given as a SMILES string.

Broadly, the melting point is the temperature of the solid-liquid transition. As to `O=C(O)c1ccc(-n2nc(-c3cccc(O)c3O)nc2-c2ccccc2O)cc1` [Example 1, 4-[3-(2,3-Dihydroxy-phenyl)-5-(2-hydroxy-phenyl)-[1,2,4]triazol-1-yl]benzoic Acid], the melting point lay within 223 to 226 °C.

(Values after patent publication US20050080120A1, “4-[3,5-bis-(2-hydroxy-phenyl)-[1,2,4]triazol-1-yl]-benzoic acid derivatives for treating an excess of metal in the body” (priority 2001, published 2005).)
